Measured values from patent US12077503B2, “Substituted cyclic amides and their use as herbicides” (FMC CORPORATION, priority 2015, dated 2024).

Legend:
Type in all cases: in vivo
[1] = tested on: barnyardgrass (Echinochloa crus-galli); assay: Test G Post-Emergence Protocol; conditions: Echinochloa crus-galli, post-emergence, 312 h; for pest or weed control at 15.625 g/ha: 15.625 g ai/ha, evaluated after 13 days (100=total damage to plant; 0=no damage to plant), read-out: Barnyardgrass damage rating; for pest or weed control at 62.5 g/ha: 62.5 g ai/ha, read-out: Barnyardgrass damage rating (100=total damage to plant; 0=no damage to plant); for pest or weed control at 62.5 g/ha / pest or weed control at 250 g/ha: evaluated after 13 days; for pest or weed control at 250 g/ha: 250 g ai/ha, read-out: damage to plant, Barnyardgrass (100=total damage to plant; 0=no damage to plant)
Procedure, shortened: (§1)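 Pot-grown seedlings, 8 days old, raised in a glasshouse at 24/16 °C day/night with 14 h light and 65% humidity, were sprayed post-emergence with test compound in acetone/water (50:50) plus 0.5% Tween 20 at 15.625, 62.5 or 250 g/ha. Damage was scored visually 13 days later on a 0–100 scale (100 = total damage).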

[2] = tested on: ivy-leaved morning glory (Ipomoea hederacea); assay: Test G Post-Emergence Protocol; conditions: Ipomoea, post-emergence, 312 h; for pest or weed control at 15.625 g/ha: 15.625 g ai/ha, evaluated after 13 days (100=total damage to plant; 0=no damage to plant), read-out: Morningglory, Ivy-leaved damage rating; for pest or weed control at 62.5 g/ha: 62.5 g ai/ha, read-out: Morningglory, Ivy-leaved damage rating (100=total damage to plant; 0=no damage to plant); for pest or weed control at 62.5 g/ha / pest or weed control at 250 g/ha: evaluated after 13 days; for pest or weed control at 250 g/ha: 250 g ai/ha, read-out: damage to plant, Morningglory, Ivy-leaved (100=total damage to plant; 0=no damage to plant)
Procedure, shortened: as §1

[3] = tested on: giant foxtail (Setaria faberi); assay: Test G Post-Emergence Protocol; conditions: Setaria faberi, post-emergence, 312 h; for pest or weed control at 15.625 g/ha: 15.625 g ai/ha, evaluated after 13 days (100=total damage to plant; 0=no damage to plant), read-out: Foxtail, Giant damage rating; for pest or weed control at 62.5 g/ha: 62.5 g ai/ha, read-out: Foxtail, Giant damage rating (100=total damage to plant; 0=no damage to plant); for pest or weed control at 62.5 g/ha / pest or weed control at 250 g/ha: evaluated after 13 days; for pest or weed control at 250 g/ha: 250 g ai/ha, read-out: damage to plant, Foxtail, Giant (100=total damage to plant; 0=no damage to plant)
Procedure, shortened: as §1

[4] = tested on: redroot pigweed (Amaranthus retroflexus); assay: Test G Post-Emergence Protocol; conditions: Amaranthus retroflexus, post-emergence, 312 h; for pest or weed control at 15.625 g/ha: 15.625 g ai/ha, evaluated after 13 days (100=total damage to plant; 0=no damage to plant), read-out: Pigweed, Redroot damage rating; for pest or weed control at 62.5 g/ha: 62.5 g ai/ha, read-out: Pigweed, Redroot damage rating (100=total damage to plant; 0=no damage to plant); for pest or weed control at 62.5 g/ha / pest or weed control at 250 g/ha: evaluated after 13 days; for pest or weed control at 250 g/ha: 250 g ai/ha, read-out: damage to plant, Pigweed, Redroot (100=total damage to plant; 0=no damage to plant)
Procedure, shortened: as §1

corn (Zea mays) [5] = assay: Test G Post-Emergence Protocol; conditions: Zea mays, post-emergence, 312 h; for plant injury at 15.625 g/ha: 15.625 g ai/ha, evaluated after 13 days (100=total damage to plant; 0=no damage to plant), read-out: Corn damage rating; for plant injury at 62.5 g/ha: 62.5 g ai/ha, read-out: Corn damage rating (100=total damage to plant; 0=no damage to plant); for plant injury at 62.5 g/ha / plant injury at 250 g/ha: evaluated after 13 days; for plant injury at 250 g/ha: 250 g ai/ha, read-out: damage to plant, Corn (100=total damage to plant; 0=no damage to plant)
Procedure, shortened: as §1

[6] = tested on: velvetleaf (Abutilon theophrasti); assay: Test G Post-Emergence Protocol; conditions: Abutilon theophrasti, post-emergence, 312 h; for pest or weed control at 15.625 g/ha: 15.625 g ai/ha, evaluated after 13 days (100=total damage to plant; 0=no damage to plant), read-out: Velvetleaf damage rating; for pest or weed control at 62.5 g/ha: 62.5 g ai/ha, read-out: Velvetleaf damage rating (100=total damage to plant; 0=no damage to plant); for pest or weed control at 62.5 g/ha / pest or weed control at 250 g/ha: evaluated after 13 days; for pest or weed control at 250 g/ha: 250 g ai/ha, read-out: damage to plant, Velvetleaf (100=total damage to plant; 0=no damage to plant)
Procedure, shortened: as §1

[7] = tested on: barnyardgrass (Echinochloa crus-galli); assay: Test G Pre-Emergence Protocol; conditions: Echinochloa crus-galli, pre-emergence, 312 h, evaluated after 13 days; for pest or weed control at 15.625 g/ha: 15.625 g ai/ha, read-out: Barnyard grass damage rating (100=total damage to plant; 0=no damage to plant); for pest or weed control at 62.5 g/ha: 62.5 g ai/ha, 100=total damage to plant, 0=no damage to plant, read-out: plant damage rating, Barnyardgrass; for pest or weed control at 250 g/ha: 250 g ai/ha, read-out: Barnyardgrass damage rating (100=total damage to plant; 0=no damage to plant)
Procedure, shortened: (§2)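 Herbicidal effect was rated 13 days post-application on a scale where 100 equals total damage. Spraying took place the day after sowing, using 15.625, 62.5 or 250 g/ha of compound in a 50:50 acetone/water solution with 0.5% Tween 20.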

[8] = tested on: ivy-leaved morning glory (Ipomoea hederacea); assay: Test G Pre-Emergence Protocol; conditions: Ipomoea, pre-emergence, 312 h, evaluated after 13 days; for pest or weed control at 15.625 g/ha: 15.625 g ai/ha, read-out: Morning-glory, Ivy-leaved damage rating (100=total damage to plant; 0=no damage to plant); for pest or weed control at 62.5 g/ha: 62.5 g ai/ha, 100=total damage to plant, 0=no damage to plant, read-out: plant damage rating, Morningglory, Ivy-leaved; for pest or weed control at 250 g/ha: 250 g ai/ha, read-out: Morningglory, Ivy-leaved damage rating (100=total damage to plant; 0=no damage to plant)
Procedure, shortened: as §2

[9] = tested on: giant foxtail (Setaria faberi); assay: Test G Pre-Emergence Protocol; conditions: Setaria faberi, pre-emergence, 312 h, evaluated after 13 days; for pest or weed control at 15.625 g/ha: 15.625 g ai/ha; for pest or weed control at 15.625 g/ha / pest or weed control at 250 g/ha: read-out: Foxtail, Giant damage rating (100=total damage to plant; 0=no damage to plant); for pest or weed control at 62.5 g/ha: 62.5 g ai/ha, 100=total damage to plant, 0=no damage to plant, read-out: plant damage rating, Foxtail, Giant; for pest or weed control at 250 g/ha: 250 g ai/ha
Procedure, shortened: as §2

[10] = tested on: redroot pigweed (Amaranthus retroflexus); assay: Test G Pre-Emergence Protocol; conditions: Amaranthus retroflexus, pre-emergence, 312 h, evaluated after 13 days; for pest or weed control at 15.625 g/ha: 15.625 g ai/ha; for pest or weed control at 15.625 g/ha / pest or weed control at 250 g/ha: read-out: Pigweed, Redroot damage rating (100=total damage to plant; 0=no damage to plant); for pest or weed control at 62.5 g/ha: 62.5 g ai/ha, 100=total damage to plant, 0=no damage to plant, read-out: plant damage rating, Pigweed, Redroot; for pest or weed control at 250 g/ha: 250 g ai/ha
Procedure, shortened: as §2

corn (Zea mays) [11] = assay: Test G Pre-Emergence Protocol; conditions: Zea mays, pre-emergence, 312 h, evaluated after 13 days; for plant injury at 15.625 g/ha: 15.625 g ai/ha; for plant injury at 15.625 g/ha / plant injury at 250 g/ha: read-out: Corn damage rating (100=total damage to plant; 0=no damage to plant); for plant injury at 62.5 g/ha: 62.5 g ai/ha, 100=total damage to plant, 0=no damage to plant, read-out: plant damage rating, Corn; for plant injury at 250 g/ha: 250 g ai/ha
Procedure, shortened: as §2

[12] = tested on: velvetleaf (Abutilon theophrasti); assay: Test G Pre-Emergence Protocol; conditions: Abutilon theophrasti, pre-emergence, 312 h, evaluated after 13 days; for pest or weed control at 15.625 g/ha: 15.625 g ai/ha; for pest or weed control at 15.625 g/ha / pest or weed control at 250 g/ha: read-out: Velvetleaf damage rating (100=total damage to plant; 0=no damage to plant); for pest or weed control at 62.5 g/ha: 62.5 g ai/ha, 100=total damage to plant, 0=no damage to plant, read-out: plant damage rating, Velvetleaf; for pest or weed control at 250 g/ha: 250 g ai/ha
Procedure, shortened: as §2

SMILES | pest or weed control at 15.625 g/ha [1] | pest or weed control at 62.5 g/ha [1] | pest or weed control at 250 g/ha [1] | pest or weed control at 15.625 g/ha [2] | pest or weed control at 62.5 g/ha [2] | pest or weed control at 250 g/ha [2] | pest or weed control at 15.625 g/ha [3] | pest or weed control at 62.5 g/ha [3] | pest or weed control at 250 g/ha [3] | pest or weed control at 15.625 g/ha [4] | pest or weed control at 62.5 g/ha [4] | pest or weed control at 250 g/ha [4] | plant injury at 15.625 g/ha (corn (Zea mays) [5]) | plant injury at 62.5 g/ha (corn (Zea mays) [5]) | plant injury at 250 g/ha (corn (Zea mays) [5]) | pest or weed control at 15.625 g/ha [6] | pest or weed control at 62.5 g/ha [6] | pest or weed control at 250 g/ha [6] | pest or weed control at 15.625 g/ha [7] | pest or weed control at 62.5 g/ha [7] | other results
Cc1cncc(NC(=O)[C@@H]2C(=O)N(C)C[C@H]2c2ccc(C(F)(F)F)cc2)n1 (racemic) [Compound 1647] | 0% | 0% | 50% | 0% | 0% | 20% | 0% | 30% | 70% | 0% | 0% | 30% | 0% | 0% | 10% | 0% | 0% | 40% | 0% | 0% | pest or weed control at 250 g/ha [7]: 0%; pest or weed control at 15.625 g/ha [8]: 0%; pest or weed control at 62.5 g/ha [8]: 0%; pest or weed control at 250 g/ha [8]: 0%; pest or weed control at 15.625 g/ha [9]: 0%; pest or weed control at 62.5 g/ha [9]: 0%; pest or weed control at 250 g/ha [9]: 70%; pest or weed control at 15.625 g/ha [10]: 0%; pest or weed control at 62.5 g/ha [10]: 0%; pest or weed control at 250 g/ha [10]: 20%; plant injury at 15.625 g/ha (corn (Zea mays) [11]): 0%; plant injury at 62.5 g/ha (corn (Zea mays) [11]): 0%; plant injury at 250 g/ha (corn (Zea mays) [11]): 0%; pest or weed control at 15.625 g/ha [12]: 0%; pest or weed control at 62.5 g/ha [12]: 0%; pest or weed control at 250 g/ha [12]: 10%
COC(=O)c1sccc1NC(=O)[C@@H]1C(=O)N(C)C[C@H]1c1ccc(C(F)(F)F)cc1 (racemic) [Compound 1621] | 10% | 30% | 30% | 0% | 0% | 0% | 10% | 40% | 40% | 0% | 20% | 10% | 0% | 0% | 0% | 0% | 0% | 0% | 0% | 0% | pest or weed control at 250 g/ha [7]: 0%; pest or weed control at 15.625 g/ha [8]: 0%; pest or weed control at 62.5 g/ha [8]: 0%; pest or weed control at 250 g/ha [8]: 0%; pest or weed control at 15.625 g/ha [9]: 0%; pest or weed control at 62.5 g/ha [9]: 0%; pest or weed control at 250 g/ha [9]: 0%; pest or weed control at 15.625 g/ha [10]: 0%; pest or weed control at 62.5 g/ha [10]: 0%; pest or weed control at 250 g/ha [10]: 0%; plant injury at 15.625 g/ha (corn (Zea mays) [11]): 0%; plant injury at 62.5 g/ha (corn (Zea mays) [11]): 0%; plant injury at 250 g/ha (corn (Zea mays) [11]): 0%; pest or weed control at 15.625 g/ha [12]: 0%; pest or weed control at 62.5 g/ha [12]: 0%; pest or weed control at 250 g/ha [12]: 0%
CN1C[C@@H](c2ccc(NS(C)(=O)=O)cc2)[C@H](C(=O)Nc2ccccc2F)C1=O (racemic) [Compound 1416] | 0% | 0% | 0% | 0% | 0% | 0% | 0% | 0% | 0% | 0% | 0% | 0% | 0% | 0% | 0% | 0% | 0% | 0% | 0% | 0% | pest or weed control at 250 g/ha [7]: 0%; pest or weed control at 15.625 g/ha [8]: 0%; pest or weed control at 62.5 g/ha [8]: 0%; pest or weed control at 250 g/ha [8]: 0%; pest or weed control at 15.625 g/ha [9]: 0%; pest or weed control at 62.5 g/ha [9]: 0%; pest or weed control at 250 g/ha [9]: 0%; pest or weed control at 15.625 g/ha [10]: 0%; pest or weed control at 62.5 g/ha [10]: 0%; pest or weed control at 250 g/ha [10]: 0%; plant injury at 15.625 g/ha (corn (Zea mays) [11]): 0%; plant injury at 62.5 g/ha (corn (Zea mays) [11]): 0%; plant injury at 250 g/ha (corn (Zea mays) [11]): 0%; pest or weed control at 15.625 g/ha [12]: 0%; pest or weed control at 62.5 g/ha [12]: 0%; pest or weed control at 250 g/ha [12]: 0%
